Reference: PubChem BioAssay (NCI)
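Growth conditions: 96-well plates. Treatment: test compound, 48 hours, 5 concentrations. Analysis: linear interpolation between bracketing concentrations; unreached endpoints set to highest concentration. GI50 is the concentration that inhibits growth by half. TGI denotes the concentration required for complete inhibition of growth.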

Assays:
Assay in all cases: DTP human tumour cell line panel, 48 h
A498 renal = tested on: A498 renal
A549 NSCLC = tested on: A549 NSCLC
MDA-MB-231 breast = tested on: MDA-MB-231 breast
NCI/ADR-RES ovarian = tested on: NCI/ADR-RES ovarian
OVCAR-5 ovarian = tested on: OVCAR-5 ovarian
OVCAR-8 ovarian = tested on: OVCAR-8 ovarian
RXF 393 renal = tested on: RXF 393 renal
SK-OV-3 ovarian = tested on: SK-OV-3 ovarian
SNB-19 CNS = tested on: SNB-19 CNS
UACC-257 melanoma = tested on: UACC-257 melanoma

Compound	GI50 (A498 renal) [µM]	TGI (A498 renal) [µM]	GI50 (A549 NSCLC) [µM]	TGI (A549 NSCLC) [µM]	GI50 (MDA-MB-231 breast) [µM]	TGI (MDA-MB-231 breast) [µM]	GI50 (NCI/ADR-RES ovarian) [µM]	TGI (NCI/ADR-RES ovarian) [µM]	GI50 (OVCAR-5 ovarian) [µM]	TGI (OVCAR-5 ovarian) [µM]	GI50 (OVCAR-8 ovarian) [µM]	TGI (OVCAR-8 ovarian) [µM]	GI50 (RXF 393 renal) [µM]	TGI (RXF 393 renal) [µM]	GI50 (SK-OV-3 ovarian) [µM]	TGI (SK-OV-3 ovarian) [µM]	GI50 (SNB-19 CNS) [µM]	TGI (SNB-19 CNS) [µM]	GI50 (UACC-257 melanoma) [µM]	TGI (UACC-257 melanoma) [µM]
O=C1NC(=NCCc2ccc(Br)cc2)S/C1=C\c1ccc2ncccc2c1	6.29	> 25	> 25	> 25	> 25	> 25	> 20.6	> 25	> 25	> 25	> 25	> 25	> 20.9	> 25	> 25	> 25	> 25	> 25	> 25	> 25
N#Cc1c(N)nc(N2CCOCC2)c(C#N)c1-c1c(Cl)cccc1Cl	3.75	23.1	10.3	95.6	3.57	15.4	2.34	7.46	6.27	35.3	14.2	63.2	4.58	28.3	4.09	21	6.09	25.6	5.16	30.4
CCc1c(C)c2cc(-n3c(-c4ccc(OC)cc4)csc3=N)c(O)c(C)c2oc1=O	1.94	8.72	2.7	12.3	1.52	6.39	1.62	10.6	2.19	4.75	2.24	8.28	1.74	6.7	2.85	34.4	2.36	8.86	3.15	14.2
CN1CCN(c2ccc(NC3=CC(=O)c4ncncc4C3=O)cc2)CC1	1.42	2.8	0.405	2.3	0.25	0.766	0.294	1.01	0.285	0.801	0.323	1.57	1.29	2.61	1.63	3.16	1.52	2.93	0.177	0.357
COc1ccc2c(c1)C(=O)c1c-2n(CCCN(C)C)c(=O)c2cc([N+](=O)[O-])ccc12	0.036	0.694			1.08	2.83	< 0.01	0.188	0.0235	0.394	< 0.011	3.75	< 0.01	0.0926	< 0.01	0.666	< 0.01	7.93	0.227	29.4
COc1ccc2nc3ccccc3c(NCCNCC(C)O)c2c1 (stereo unspecified)	0.0734	0.73			0.31	1.85	5.11	39.4	0.377	5.01	0.441	11.9	0.373	1.74	0.612	9.12	0.391	10.3	0.81	3.84
CCCCCCCCN=C(NCCCCCCCC)SCc1cccc2ccccc12	1.52	2.9	1.67	3.13	1.14	2.55	1.62	3.05	1.36	2.79	1.64	3.11	1.42	2.78			1.83	3.45	1.75	3.33
CSc1ccc(C(=O)/C=C/c2ccc(Cl)cc2Cl)cc1	20.3	51.3	17.7	40.5	27.7	86.9	30	94.7	21.6	52.2	20.3	43.4	16.4	36.2					24	91.4
FC(F)(F)c1cccc(-c2[nH]ncc2-c2nnnn2-c2ccccc2)c1	4.28	17.8	4.54	84.9	3.2	12.7	3.17	25.2	10.6	31.2	7.77	90.2	2.91	11.7	6.05	21.9			11.4	33.9
COc1ccc2nc3ccccc3c(NCCCCN(CCCl)CCCl)c2c1		4.21		6.25		16.7		5.4		> 23.6		0.625		0.289				7.9		3.34
CSc1nc(SC)c2c(C)cn(COCCOC(=O)c3ccccc3)c2n1		> 100		> 100		> 100		> 100		> 100		> 100		> 100		> 100		> 100		
